# Literature values in patent US12557779B2 (priority 2020, dated 2026).
# Molecular target: cannabinoid receptor type 2 (CB2) (Homo sapiens, UniProt P34972)
# Sequence (P34972 whole entry, species assumed): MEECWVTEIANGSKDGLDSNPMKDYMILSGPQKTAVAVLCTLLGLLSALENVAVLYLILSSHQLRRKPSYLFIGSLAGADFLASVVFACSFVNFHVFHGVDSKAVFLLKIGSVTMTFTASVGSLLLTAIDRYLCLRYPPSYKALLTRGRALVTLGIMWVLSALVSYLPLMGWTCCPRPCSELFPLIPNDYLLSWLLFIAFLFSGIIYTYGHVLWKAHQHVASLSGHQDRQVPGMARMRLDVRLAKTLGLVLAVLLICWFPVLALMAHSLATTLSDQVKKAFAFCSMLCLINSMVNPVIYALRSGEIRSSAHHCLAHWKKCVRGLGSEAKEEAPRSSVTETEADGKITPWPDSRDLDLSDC
smiles,measurement,value
"C=C(C)[C@@H]1CCC(C)=C[C@H]1c1c(O)cc(CCCCC)cc1O [CBD, cannabidiol]",affinity for CB2,minimal affinity
